# Data taken from PMC12718135, “Non-catalytic UBL2 domain directs deubiquitinase USP11 toward K48-linked polyubiquitin chains” (The Journal of Biological Chemistry, 2025).
# Tests used:
# USP11ΔDUSP = target: T1, USP11ΔDUSP (Homo sapiens, UniProt P51784); assay: SDS-gel deubiquitination of K48- and K63-polyubiquitinated Rsp5; format: biochemical; settings: K48- and K63-linked poly-ubiquitinated Rsp5 substrates
# T1 construct: gene USP11; N-terminal DUSP domain removed; keeps UBL1, D1, UBL2-IDR, D2
# T1 sequence (P51784 185-963 limits assumed, stated change not applied): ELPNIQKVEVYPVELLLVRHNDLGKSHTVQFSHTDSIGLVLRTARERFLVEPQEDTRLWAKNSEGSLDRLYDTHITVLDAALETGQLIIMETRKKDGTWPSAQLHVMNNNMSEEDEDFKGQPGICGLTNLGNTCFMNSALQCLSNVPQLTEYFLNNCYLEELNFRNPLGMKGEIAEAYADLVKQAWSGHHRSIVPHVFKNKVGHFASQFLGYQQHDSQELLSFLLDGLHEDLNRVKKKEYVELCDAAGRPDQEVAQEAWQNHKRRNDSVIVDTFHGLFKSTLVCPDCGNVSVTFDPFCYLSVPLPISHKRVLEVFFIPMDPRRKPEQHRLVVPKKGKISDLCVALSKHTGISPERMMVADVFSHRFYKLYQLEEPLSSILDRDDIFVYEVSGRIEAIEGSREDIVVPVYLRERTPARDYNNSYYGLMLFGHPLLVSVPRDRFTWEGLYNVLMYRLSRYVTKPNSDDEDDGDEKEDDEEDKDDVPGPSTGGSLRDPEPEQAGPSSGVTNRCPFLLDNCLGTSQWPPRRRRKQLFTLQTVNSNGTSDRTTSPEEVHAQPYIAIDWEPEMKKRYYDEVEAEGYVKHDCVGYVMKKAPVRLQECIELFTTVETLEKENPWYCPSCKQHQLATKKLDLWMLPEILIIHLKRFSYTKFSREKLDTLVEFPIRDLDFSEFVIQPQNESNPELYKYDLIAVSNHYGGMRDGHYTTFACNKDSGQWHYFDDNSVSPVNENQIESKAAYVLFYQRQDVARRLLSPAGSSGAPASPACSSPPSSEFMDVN
# USP11-D1D2 = target: T2, USP11-D1D2 (Homo sapiens, UniProt P51784); assay: SDS-gel deubiquitination of K63-polyubiquitinated Rsp5 (fluorescein-Ub); format: biochemical; settings: 1 μM enzyme, 25 mM Tris pH 7.5, 200 mM NaCl, 3 mM βME
# T2 construct: catalytic core only: D1 and D2 segments joined by five residues (ASTSK), UBL2-IDR insert, DUSP and UBL1 removed; E. coli BL21 RIL, N-terminal His6 tag cut with TEV
# T2 sequence (P51784 286-490 limits assumed): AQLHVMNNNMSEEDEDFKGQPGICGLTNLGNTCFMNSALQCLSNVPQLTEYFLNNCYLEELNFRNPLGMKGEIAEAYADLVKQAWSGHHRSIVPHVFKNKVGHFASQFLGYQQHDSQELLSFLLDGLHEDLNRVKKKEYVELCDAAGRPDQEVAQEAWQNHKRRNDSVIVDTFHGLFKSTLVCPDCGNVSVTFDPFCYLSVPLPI
# T2 sequence (P51784 735-930 limits assumed): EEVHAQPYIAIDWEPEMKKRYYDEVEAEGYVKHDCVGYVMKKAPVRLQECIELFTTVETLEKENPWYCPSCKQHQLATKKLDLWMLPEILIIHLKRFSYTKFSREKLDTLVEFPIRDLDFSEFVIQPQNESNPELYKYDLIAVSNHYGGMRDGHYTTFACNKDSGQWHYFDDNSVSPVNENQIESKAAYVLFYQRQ
SMILES,IC50 (USP11-D1D2) [µM],IC50 (USP11-D1D2; value printed collectively for the analogs) [µM],SDS-gel deubiquitination of K48- and K63-polyubiquitinated Rsp5 (USP11ΔDUSP)
Cc1cc2c(s1)Nc1ccccc1N=C2N1CCN(C)CC1 [Olanzapine],,,Fenoldopam and Olanzapine effectively disrupted the ability of USP11ΔDUSP to process both K48 and K63-linked
Oc1ccc(C2CNCCc3c2cc(O)c(O)c3Cl)cc1 (centres unmarked) [SRF-01],,~30,"SRF-01, SRF-02, SRF-03, and SRO-01 also inhibited the activity of USP11ΔDUSP"
Oc1ccc(C2CNCCc3c2cc(O)c(O)c3Cl)cc1 (centres unmarked) [Fenoldopam],~30,,Fenoldopam and Olanzapine effectively disrupted the ability of USP11ΔDUSP to process both K48 and K63-linked

# The next lines start with results.
IC50 (USP11-D1D2) [µM],IC50 (USP11-D1D2; value printed collectively for the analogs) [µM],SMILES,SDS-gel deubiquitination of K48- and K63-polyubiquitinated Rsp5 (USP11ΔDUSP)
~30,,Cc1cc2c(s1)Nc1ccccc1N=C2N1CC[N+](C)([O-])CC1 [SRO-01],"SRF-01, SRF-02, SRF-03, and SRO-01 also inhibited the activity of USP11ΔDUSP"
~30,,Oc1cc2c(cc1O)C(c1ccccc1)CNCC2 (centres unmarked) [SRF-02],"SRF-01, SRF-02, SRF-03, and SRO-01 also inhibited the activity of USP11ΔDUSP"
~30,,CN1CCc2cc(Cl)c(O)cc2[C@@H](c2ccccc2)C1 [SRF-03],"SRF-01, SRF-02, SRF-03, and SRO-01 also inhibited the activity of USP11ΔDUSP"
